# Measured values as given in patent publication US11666562B2, “Ilaprazole for inhibiting the release of enveloped viruses from cells” (Northwestern University, priority 2020, dated 2023).
# Entries after “also recorded” stand apart in the source; their conditions may differ.
# Assays:
# [1] = test system: DHPH; experiment: FTS assay against unrelated protein DHPH; assay type: binding, human
# Excerpt: (§1) FIG. 1. Thermal shift data of Tsg101 by lead compound Tenatoprazole (N16). […] (B) Thermal shift data of three human proteins, DHPH, ENO1, and MEK4 not related to Tsg101 by lead compound tenatoprazole. […] (C) The addition of DTT abolishes the Tm shift in the FTS assay, consistent with prazole compounds forming a disulfide bond to Tsg101. Rabe: Rabeprazole, Ila: Ilaprazole, Tenato: tenatoprazole, Panto: pantoprazole, ref: reference.
# (§2) This specific binding is consistent with a previous NMR structure in which tenatoprazole forms a covalent disulfide bond to Cys73 in the UEV domain of the protein (5). This disulfide bond formation can be prevented by including the reducing agent DTT in the assay (FIG. 1C). The addition of DTT abolished the Tsg101-UEV Tm shift caused by the prazoles. […]
# (§3) Fluorescence thermal shift (FTS) screening to identify small molecule binding to Tsg101-UEV. […] Discovery of small molecule binding to target protein utilizes the observation that ligand binding affects protein thermal stability, and therefore can be detected through a shift in the protein's thermal denaturation (melting) temperature (Tm). […] A fluorescence dye Sypro-Orange (Invitrogen) was used for assay detection. The dye is excited at 473 nm and has a fluorescence emission at 610 nm. […] Fluorescence was detected on a real-time PCR machine CFX384 (Bio-Rad Laboratories).
# [2] = molecular target: ENO1 (Homo sapiens, UniProt P06733); experiment: FTS assay against unrelated protein ENO1; assay type: binding
# Excerpt: as §1, §2, §3
# [3] = molecular target: T1, MEK4 (Homo sapiens, UniProt P45985); experiment: FTS assay against unrelated protein MEK4; assay type: binding
# T1 sequence (P45985 1-399): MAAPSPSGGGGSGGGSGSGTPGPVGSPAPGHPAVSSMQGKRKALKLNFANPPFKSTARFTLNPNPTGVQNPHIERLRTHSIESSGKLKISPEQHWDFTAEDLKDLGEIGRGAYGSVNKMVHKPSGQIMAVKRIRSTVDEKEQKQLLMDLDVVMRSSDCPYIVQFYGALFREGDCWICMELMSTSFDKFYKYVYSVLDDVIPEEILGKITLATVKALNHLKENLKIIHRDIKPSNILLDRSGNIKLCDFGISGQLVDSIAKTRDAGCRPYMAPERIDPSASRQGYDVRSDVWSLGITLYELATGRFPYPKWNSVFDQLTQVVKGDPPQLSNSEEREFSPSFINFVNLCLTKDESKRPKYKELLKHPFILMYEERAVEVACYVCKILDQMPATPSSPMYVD
# Excerpt: as §1, §2, §3
# [4] = test system: HIV-1; details: earlier reports (refs 5, 29); cited from earlier work
# Sequence of ENO1 (P06733 whole entry): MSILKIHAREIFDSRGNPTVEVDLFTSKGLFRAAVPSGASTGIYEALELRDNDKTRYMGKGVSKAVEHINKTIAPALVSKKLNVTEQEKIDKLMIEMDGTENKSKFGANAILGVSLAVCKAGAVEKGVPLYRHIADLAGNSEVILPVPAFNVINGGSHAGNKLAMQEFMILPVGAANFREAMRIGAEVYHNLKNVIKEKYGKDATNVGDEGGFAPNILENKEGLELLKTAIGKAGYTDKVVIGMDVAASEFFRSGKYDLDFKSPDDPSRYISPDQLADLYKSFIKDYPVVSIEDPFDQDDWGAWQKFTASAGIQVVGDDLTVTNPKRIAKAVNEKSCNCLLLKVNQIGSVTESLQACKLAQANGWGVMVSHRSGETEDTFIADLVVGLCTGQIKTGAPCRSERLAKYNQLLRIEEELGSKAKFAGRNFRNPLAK
structure (smiles),measurement,setting,value
COc1ccc2[nH]c([S+]([O-])Cc3ncc(C)c(OC)c3C)nc2n1 (stereo not shown) [Tenatoprazole],Effect on thermal stability (Tm shift) of DHPH,[1],negligible; also recorded: did not observe a Tm shift
same,Effect on thermal stability (Tm shift) of ENO1,[2],negligible; also recorded: did not observe a Tm shift
same,Effect on thermal stability (Tm shift) of MEK4,[3],negligible; also recorded: did not observe a Tm shift
same,Inhibition of release of infectious HIV-1 from 293T cells,[4],quantitatively inhibit the release
